Consider 13 molecules from article PMC8399014, “Design of Multifaceted Antioxidants: Shifting towards Anti-Inflammatory and Antihyperlipidemic Activity” (Molecules, 2021).

SMILES strings stand for the structures. pIC50: −log10 of the molar value. Read-outs that look alike come from different tables or passages of the source. Marks after values point to notes of the source that are not given here.

The subject of series [1] is carrageenan-induced mouse paw edema. Conditions: cited from earlier work.
The target in series [2] is T1, soybean lipoxygenase (LOX-3) (Glycine max, UniProt P09186).
T1 sequence (P09186 1-857): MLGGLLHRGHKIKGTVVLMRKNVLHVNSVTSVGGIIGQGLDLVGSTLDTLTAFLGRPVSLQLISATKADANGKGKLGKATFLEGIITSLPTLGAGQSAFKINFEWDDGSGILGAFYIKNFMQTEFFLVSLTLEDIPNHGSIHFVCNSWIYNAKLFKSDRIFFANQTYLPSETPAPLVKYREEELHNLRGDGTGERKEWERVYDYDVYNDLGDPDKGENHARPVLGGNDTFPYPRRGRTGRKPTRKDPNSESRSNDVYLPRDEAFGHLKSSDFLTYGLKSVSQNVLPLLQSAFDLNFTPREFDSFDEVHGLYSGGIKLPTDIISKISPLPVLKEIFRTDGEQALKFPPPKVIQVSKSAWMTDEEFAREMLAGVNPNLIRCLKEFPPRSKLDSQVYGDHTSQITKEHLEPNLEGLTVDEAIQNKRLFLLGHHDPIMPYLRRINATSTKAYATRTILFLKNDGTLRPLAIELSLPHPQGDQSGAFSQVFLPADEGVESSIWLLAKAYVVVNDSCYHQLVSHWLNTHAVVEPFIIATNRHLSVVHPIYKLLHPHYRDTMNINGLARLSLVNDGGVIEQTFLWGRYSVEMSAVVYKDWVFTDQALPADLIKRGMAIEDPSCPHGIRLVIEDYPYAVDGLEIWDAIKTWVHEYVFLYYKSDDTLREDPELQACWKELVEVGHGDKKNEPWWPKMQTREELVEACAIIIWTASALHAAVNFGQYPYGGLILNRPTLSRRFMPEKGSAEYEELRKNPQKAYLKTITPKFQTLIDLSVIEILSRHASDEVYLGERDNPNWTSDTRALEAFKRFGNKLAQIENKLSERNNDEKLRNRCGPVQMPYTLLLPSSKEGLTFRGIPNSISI
The experiment in a line: Soybean lipoxygenase (LOX-3) inhibition. It is filed as biochemical. As to conditions: for LOX-3 inhibitory activity (in words): parent antioxidants.
Procedure: The anti-inflammatory effect of the synthesized compounds was initially evaluated in vitro, via their ability to inhibit soybean lipoxygenase (LOX-3).
Lipoxygenase activity was determined using soybean lipoxygenase (250 U/mL) and sodium linoleate (100 μM) as substrate, in Tris–HCl buffer pH 9.0. The test compounds dissolved in methanol were added and the reaction was monitored for 5 min at 28 °C, recording absorbance at 234 nm.

The subject of series [3] is experimentally induced hyperlipidemic mouse model. The experiment in a line: Tyloxapol (Triton WR 1339)-induced hyperlipidemia. It is filed as in vivo, mice. As to conditions: 84 μmol/kg i.p.; 24 h after tyloxapol. The procedure: Acute hyperlipidemia was achieved, i.p., by the administration of tyloxapol (Triton WR 1339). The antihyperlipidemic effect of the tested compounds was evaluated as the decrease in total cholesterol (TC) and triglyceride (TG) levels in plasma 24 h after tyloxapol administration. The results are shown in Figure 4A,B. Compounds 9 and 10 reduced TC levels in plasma by 73% and 50%, respectively, and TG levels by 76% and 41%, respectively.
An aqueous solution of Triton WR 1339 was given, i.p., to mice (400 mg/kg of body weight) and one hour later the test compounds (84 μmol/kg of body weight), dissolved in saline or saline only were administered, i.p. After 24 h, blood was taken from the aorta/heart and used for the determination of plasma total cholesterol (TC) and triglyceride (TG) levels, using commercially available kits. Levels of plasma lipids were determined in duplicate while the values presented were the mean from eight animals (per compound).

Series [4] relates to rat/mouse microsomal lipid peroxidation. The experiment in a line: Inhibition of microsomal lipid peroxidation. It is filed as biochemical, C57BL/6 mice. As to conditions: after 45 min of incubation; read-out: IC50 against microsomal lipid peroxidation. On the procedure: The antioxidant effect of the new compounds, as well as their parent compounds was also evaluated by the protection offered against rat/mouse microsomal lipid peroxidation.
The incubation mixture contained heat-inactivated (90 °C for 90 s) liver microsomal fraction from untreated C57BL/6 mice (corresponding to 2.5 mg of hepatic protein per milliliter or 4 mM fatty acid residues), ascorbic acid (0.2 mM) in Tris–HCl/KCl buffer (50 mM/ 150 mM, pH 7.4), and the studied compounds dissolved in dimethyl sulfoxide (in different concentrations). The reaction was initiated by the addition of a freshly prepared FeSO4 solution (10 μM), and the mixture was incubated at 37 °C for 45 min. Aliquots were taken at various time intervals and lipid peroxidation was assessed by the spectrophotometric (535 against 600 nm) determination of the produced 2-thiobarbituric acid reactive material.

Series [5] relates to carrageenan-induced mouse paw edema. The experiment in a line: Carrageenan-induced mouse paw edema. It is filed as in vivo. As to conditions: for inhibition in vivo at 300 µmol/kg: Mus musculus, ip, 0.30 mmol/kg i.p., 3.5 h after carrageenan, mean of 6 animals, read-out: % Edema Reduction. On the procedure: In vivo anti-inflammatory activity of the synthesized compounds was evaluated as mouse paw edema reduction. Paw edema was induced by subcutaneous injection of a 2% carrageenan suspension in the right paw of mice, the left serving as the control. The activity of the tested compounds (at 0.30 mmol/kg of body weight, i.p.), expressed as % reduction in paw edema 3.5 h after carrageenan injection, is shown in Table 2. […] Moreover, compounds 9 and 10 (antioxidant derivatives of mefenamic acid) caused a 1.5–2-fold improvement in edema reduction compared to that of the parent mefenamic acid (i).
For the in vivo anti-inflammatory activity, Wistar male rats or C57BL/6 mice were injected with 0.025 mL carrageenan (2% w/v solution in saline) i.d. into the right hind paw, with the left paw serving as the control. The test compounds (300 μmol/kg) were given, i.p., after the carrageenan injection, and 3.5 h later, the produced edema was estimated as the paw weight increase. Results are expressed as percentage of the reduction in paw edema and are the means for six animals (per compound).

A short description of series [6]: Radical scavenging of DPPH. Conditions: DPPH 200 μM, after incubation for 30 min. The procedure:
The antioxidant activity of compounds 1–17 was evaluated via their ability to scavenge the free radical DPPH.
Compounds dissolved in absolute methanol at concentrations of 25–400 μM were added to an equal volume of a methanolic solution of DPPH (final concentration 200 μM) at room temperature (22 ± 2 °C). Absorbance (517 nm) was recorded at different time intervals for 1 h and results were expressed as IC50 (μM) for DPPH after incubation for 30 min [3].
(In general: DPPH is a stable violet radical that fades when it is reduced.)

Series [7] has as its system rat/mouse microsomal lipid peroxidation. Details: method as in doi:10.1002/(SICI)1098-2299(199905)47:1<9::AID-DDR2>3.0.CO. Conditions: after 45 min of incubation; read-out: IC50 against microsomal lipid peroxidation; cited from earlier work.
Where [8] appears, read: after 5 min of incubation, sodium linoleate 100 μM, pH 9.0, read-out: IC50 Value on LOX-3.

As for `COc1ccc2c(c1)c(CC(=O)O)c(C)n2C(=O)c1ccc(Cl)cc1` [m, Indomethacin], the “% Edema Reduction” value in series [1] (0.30 mmol/kg i.p.) was 55*** [5] %.

The melting point is the temperature, or range, at which the solid turns liquid. The term pIC50 denotes the IC50 on a negative log10 scale, so that one unit is a factor of ten. On to `COc1ccc2cc(C(C)C(=O)OCc3cc(C(C)(C)C)c(O)c(C(C)(C)C)c3)ccc2c1` (stereo not shown) [Compound 3, 3,5-di-tert-butyl-4-hydroxybenzyl 2-(6-methoxynaphthalen-2-yl)propanoate], for which the melting point was in the range of 85 to 86 °C. Also, the negative-log IC50 (pIC50) in series [2] (setting [8]) was 4.39. Further, the “% Edema Reduction” value in series [1] (0.15 mmol/kg i.p.) was 78**^a [11] %.

`Cc1cccc(Nc2ccccc2C(=O)OCc2cc(C(C)(C)C)c(O)c(C(C)(C)C)c2)c1C` [Compound 9, 3,5-di-tert-butyl-4-hydroxybenzyl 2-((2,3-dimethylphenyl)amino)benzoate]: in series [3], the “reduction of total cholesterol (TC) levels in plasma” value turned out to be 73% and the “reduction of triglyceride (TG) levels in plasma” value is reported as 76%. For the same molecule, the negative-log IC50 (pIC50) in series [4] was 5.30. The inhibition in vivo at 300 µmol/kg in series [5] was 63%. The “improvement in edema reduction” value in series [5] (compared to parent mefenamic acid (i)) was 1.5–2 fold. Besides, the negative logarithm of the IC50 (pIC50) in series [2] (setting [8]) is 3.97.

On to `Cc1c(C)c2c(c(C)c1O)CCC(C)(C(=O)O)O2` (stereo not shown) [Trolox, 6-hydroxy-2,5,7,8-tetramethylchromane-2-carboxylic acid, reference compound], for which the pIC50 in series [6] was 4.48; in series [4] it was 4.60. Also, in series [5], the inhibition in vivo at 300 µmol/kg turned out to be 46%. In addition, the “LOX-3 inhibitory activity (in words)” value in series [2] is listed as “little or no inhibitory activity”.

Regarding `CC(C)Cc1ccc(C(C)C(=O)O)cc1` (stereo not shown) [a, Ibuprofen], the “% Edema Reduction” value in series [1] (0.30 mmol/kg i.p.) is 57*** [5] %.

As for `Cc1c(Cl)cccc1Nc1ccccc1COC(=O)C1(C)CCc2c(C)c(O)c(C)c(C)c2O1` (stereo not shown) [Compound 16, 2-((3-chloro-2-methylphenyl)amino)benzyl 6-hydroxy-2,5,7,8-tetramethylchromane-2-carboxylate], the melting point fell in the range of 150.4 to 151.3 °C. Moreover, in series [3], the “reduction of total cholesterol (TC) levels in plasma” value was determined as 55% and the “reduction of triglyceride (TG) levels in plasma” value came out at 78%. The molecule also showed a negative logarithm of the IC50 (pIC50) in series [6] of 4.33. In addition, the inhibition in vivo at 300 µmol/kg in series [5] worked out at 54%. Further, the pIC50 in series [2] (setting [8]) is 4.27.

In the case of `CC(C)(C)c1cc(C(=O)O)cc(C(C)(C)C)c1O` [BHB, 3,5-di-tert-butyl-4-hydroxybenzoic acid, reference compound], the negative-log IC50 (pIC50) was 4.51 in series [6] and 3.59 in series [4]. Further, the inhibition in vivo at 300 µmol/kg in series [5] was determined as 53%. The “LOX-3 inhibitory activity (in words)” value in series [2] was “little or no inhibitory activity”.

For the molecule `COc1ccc2cc([C@H](C)C(=O)O)ccc2c1` [c, Naproxen, reference compound], the pIC50 in series [2] is 4.60. In addition, in series [1] (0.30 mmol/kg i.p.), the “% Edema Reduction” value was 51** [11] %.

`Cc1cccc(Nc2ccccc2C(=O)O)c1C` [i, Mefenamic acid, reference compound]: in series [5], the inhibition in vivo at 300 µmol/kg is 35%. Moreover, in series [7], the pIC50 is 3.89.

Regarding `CC(C)(C)c1cc(CO)cc(C(C)(C)C)c1O` [BHBA, 3,5-di-tert-butyl-4-hydroxybenzyl alcohol, reference compound], the pIC50 in series [6] is 3.80; in series [4], 5.00. Also, the inhibition in vivo at 300 µmol/kg in series [5] turned out to be 71%. Besides, in series [2], the “LOX-3 inhibitory activity (in words)” value was “little or no inhibitory activity”.

Take `O=C(O)Cc1ccccc1Nc1c(Cl)cccc1Cl` [k, Diclofenac]: in series [1] (0.30 mmol/kg i.p.), the “% Edema Reduction” value was 61*** [5] %.

On to `O=C(O)c1ccccc1Nc1cccc(C(F)(F)F)c1` [g, Flufenamic acid], for which the “% Edema Reduction” value in series [1] (0.15 mmol/kg i.p.) is 19**^a [17] %.

Consider `Cc1c(Cl)cccc1Nc1ccccc1C(=O)O` [e, Tolfenamic acid], for which the “% Edema Reduction” value in series [1] (0.30 mmol/kg i.p.) was 60*** [5] %. Further, the pIC50 in series [7] is 3.60.
